Measured values as given in US10722501B2 (BAYER AKTIENGESELLSCHAFT, priority 2016, dated 2020).
pIC50: −log10 of the molar value.

Molecular target: T1, recombinant full-length human prolyl endopeptidase (PREP) (Homo sapiens, UniProt P48147)
T1 construct: To recombinant full-length human prolyl endopeptidase (PREP, R&D-Systems, 4308-SE); purchased R&D-Systems 4308-SE
T1 sequence (P48147 1-710): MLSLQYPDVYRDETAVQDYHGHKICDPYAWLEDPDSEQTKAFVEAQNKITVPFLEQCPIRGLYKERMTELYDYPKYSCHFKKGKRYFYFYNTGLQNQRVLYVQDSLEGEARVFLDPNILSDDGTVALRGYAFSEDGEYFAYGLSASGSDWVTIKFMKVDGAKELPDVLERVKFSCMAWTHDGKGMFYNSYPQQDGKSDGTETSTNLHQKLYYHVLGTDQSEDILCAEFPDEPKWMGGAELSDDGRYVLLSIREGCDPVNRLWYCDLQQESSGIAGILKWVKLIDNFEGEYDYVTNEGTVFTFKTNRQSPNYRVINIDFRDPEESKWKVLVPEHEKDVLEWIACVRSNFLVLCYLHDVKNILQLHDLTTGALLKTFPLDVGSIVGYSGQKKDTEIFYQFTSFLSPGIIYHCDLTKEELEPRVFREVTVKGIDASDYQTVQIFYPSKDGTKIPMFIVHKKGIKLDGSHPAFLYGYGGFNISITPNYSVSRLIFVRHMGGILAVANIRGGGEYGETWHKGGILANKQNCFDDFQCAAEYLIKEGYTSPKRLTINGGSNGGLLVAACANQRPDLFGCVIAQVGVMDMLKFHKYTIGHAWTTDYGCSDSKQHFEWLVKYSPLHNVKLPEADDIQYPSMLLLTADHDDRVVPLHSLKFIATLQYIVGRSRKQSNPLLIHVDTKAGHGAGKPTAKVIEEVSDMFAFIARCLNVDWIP
Test: Biochemical human prolyl endopeptidase (PREP) assay with fluorescently labelled substrate
Settings: substrate Z-Gly-Pro-AMC 50 μM, 32° C., 60 min; some as mean values from multiple independent determinations
How it was run: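 Initial rates of fluorescence increase from 50 μM Z-Gly-Pro-AMC cleavage (ex 360/em 465 nm, 60 min, 32° C) give percent PREP activity versus no-compound control, and IC50 is interpolated. Enzyme used at 0.4 nM (final, example) in Tris pH 7.5 with EDTA, GSH, BSA and Brij-35; compounds span 1 nM to 30 μM.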

**Q.** With `O=C([C@@H]1CCCc2nn(Cc3cccc(C(F)(F)F)c3)c(=O)n21)N1CC(F)C1` [Example 447, (5S)-5-[(3-Fluoroazetidin-1-yl)carbonyl]-2-[3-(trifluoromethyl)benzyl]-5,6,7,8-tetrahydro[1,2,4]triazolo[4,3-a]pyridin-3(2H)-one] as the compound, how does the pIC50 read?
**A.** 8.85

**Q.** `Cc1ccc(Cn2nc3n(c2=O)C(C(=O)N2CCCC2)CCC3)cc1` (racemic) [Example 25, (5RS)-2-(4-Methylbenzyl)-5-(pyrrolidin-1-ylcarbonyl)-5,6,7,8-tetrahydro[1,2,4]triazolo[4,3-a]pyridin-3(2H)-one] was tested. Which pIC50 did it give?
**A.** 9.12

**Q.** `O=C(C1CCCc2nn(Cc3ccccn3)c(=O)n21)N1CCCC1` (racemic) [Example 22, (5RS)-2-(Pyridin-2-ylmethyl)-5-(pyrrolidin-1-ylcarbonyl)-5,6,7,8-tetrahydro[1,2,4]triazolo[4,3-a]pyridin-3(2H)-one] was tested. Which pIC50 did it give?
**A.** 7.38

**Q.** How did the pIC50 turn out when `O=C([C@@H]1CCCc2nn(Cc3ccc(F)c(F)c3)c(=O)n21)N1CC[C@H](F)C1` [Example 466, (5S)-2-(3,4-Difluorobenzyl)-5-{[(3S)-3-fluoropyrrolidin-1-yl]carbonyl}-5,6,7,8-tetrahydro[1,2,4]triazolo[4,3-a]pyridin-3(2H)-one] was run?
**A.** 9.39

**Q.** `COc1cccc(Cn2nc3n(c2=O)C(C(=O)N2CCCC2)CCC3)c1` (racemic) [Example 20, (5RS)-2-(3-Methoxybenzyl)-5-(pyrrolidin-1-ylcarbonyl)-5,6,7,8-tetrahydro[1,2,4]triazolo[4,3-a]pyridin-3(2H)-one] was tested. Which pIC50 did it give?
**A.** 8.82

**Q.** How did the pIC50 turn out when `CC1Cc2nn(Cc3ccc(C(F)(F)F)nc3)c(=O)n2C(C(=O)N2CC[C@H](F)C2)C1` (mixture of isomers) [Example 136, (5RS,7RS)-5-{[(3S)-3-Fluoropyrrolidin-1-yl]carbonyl}-7-methyl-2-{[6-(trifluoromethyl)pyridin-3-yl]methyl}-5,6,7,8-tetrahydro[1,2,4]triazolo[4,3-a]pyridin-3(2H)-one] was run?
**A.** 8.93

**Q.** With `O=C(C1C(C(F)(F)F)CCc2nn(Cc3ccc(Cl)cn3)c(=O)n21)N1CC[C@H](F)C1` (mixture of isomers) [Example 298, (5RS,6RS)-2-[(5-Chloropyridin-2-yl)methyl]-5-{[(3S)-3-fluoropyrrolidin-1-yl]carbonyl}-6-(trifluoromethyl)-5,6,7,8-tetrahydro[1,2,4]triazolo[4,3-a]pyridin-3(2H)-one] as the compound, how does the pIC50 read?
**A.** 7.62

**Q.** `O=C([C@@H]1CCCc2nn(Cc3ccc(F)cc3)c(=O)n21)N1CCC(F)(F)C1` [Example 451, (5S)-5-[(3,3-Difluoropyrrolidin-1-yl)carbonyl]-2-(4-fluorobenzyl)-5,6,7,8-tetrahydro[1,2,4]triazolo[4,3-a]pyridin-3(2H)-one] was tested. Which pIC50 did it give?
**A.** 8.96

**Q.** With `Cc1ccc(Cn2nc3n(c2=O)C(C(=O)N2C[C@@H]4[C@H](C2)C4(F)F)CCC3)cc1` (mixture of isomers) [Example 117, (5RS)-5-{[(cis)-6,6-Difluoro-3-azabicyclo[3.1.0]hex-3-yl]carbonyl}-2-(4-methylbenzyl)-5,6,7,8-tetrahydro[1,2,4]triazolo[4,3-a]pyridin-3(2H)-one] as the compound, how does the pIC50 read?
**A.** 8.50

**Q.** With `Cc1ccc(Cn2nc3n(c2=O)C(C(=O)N2CCCC2C)CCC3)cc1` (racemic) [Example 162, (5RS)-2-(4-Methylbenzyl)-5-[2(RS)-(2-methylpyrrolidin-1-yl)carbonyl]-5,6,7,8-tetrahydro[1,2,4]triazolo[4,3-a]pyridin-3(2H)-one] as the compound, how does the pIC50 read?
**A.** 6.89

**Q.** `O=C([C@@H]1CCCc2nn(Cc3cccc(Cl)n3)c(=O)n21)N1CC[C@H](F)C1` [Example 386, (5S)-2-[(6-Chloropyridin-2-yl)methyl]-5-{[(3S)-3-fluoropyrrolidin-1-yl]carbonyl}-5,6,7,8-tetrahydro[1,2,4]triazolo[4,3-a]pyridin-3(2H)-one] was tested. Which pIC50 did it give?
**A.** 9.03

**Q.** `Cc1ccc(Cn2nc3n(c2=O)C(C(=O)N2CCS(=O)(=O)C2)CCC3)cc1` (single isomer, unassigned) [Example 142, (5RS)-5-[(1,1-Dioxido-1,3-thiazolidin-3-yl)carbonyl]-2-(4-methylbenzyl)-5,6,7,8-tetrahydro[1,2,4]triazolo[4,3-a]pyridin-3(2H)-one] was tested. Which pIC50 did it give?
**A.** 8.59

**Q.** With `O=C(C1CC(C(F)(F)F)Cc2nn(Cc3ccc(C(F)(F)F)nc3)c(=O)n21)N1CC(F)C(F)C1` (single isomer, unassigned) [Example 583] as the compound, how does the pIC50 read?
**A.** 6.01

**Q.** With `O=C([C@@H]1CCCc2nn(Cc3ccc(F)nc3)c(=O)n21)N1CC(F)(F)C1` [Example 537, (5S)-5-[(3,3-Difluoroazetidin-1-yl)carbonyl]-2-[(6-fluoropyridin-3-yl)methyl]-5,6,7,8-tetrahydro[1,2,4]triazolo[4,3-a]pyridin-3(2H)-one] as the compound, how does the pIC50 read?
**A.** 8.06

**Q.** `O=C(C1CCCc2nn(Cc3ccc(Cl)s3)c(=O)n21)N1CCC(F)(F)C1` (racemic) [Example 54, (5RS)-2-[(5-Chloro-2-thienyl)methyl]-5-[(3,3-difluoropyrrolidin-1-yl)carbonyl]-5,6,7,8-tetrahydro[1,2,4]triazolo[4,3-a]pyridin-3(2H)-one] was tested. Which pIC50 did it give?
**A.** 8.89

**Q.** `O=C([C@@H]1CCCc2nn(Cc3ccc(C(F)(F)F)nc3)c(=O)n21)N1CCC2CC21` (single isomer, unassigned) [Example 200] was tested. Which pIC50 did it give?
**A.** 6.34

**Q.** `O=C([C@@H]1CCCc2nn(Cc3ccc(F)c(Cl)c3)c(=O)n21)N1CCC2CC21` (single isomer, unassigned) [Example 202] was tested. Which pIC50 did it give?
**A.** 7.72

**Q.** How did the pIC50 turn out when `O=C([C@@H]1CCCc2nn(CCc3ccc(F)cc3)c(=O)n21)N1CC(F)(F)C1` [Example 345, (5S)-5-[(3,3-Difluoroazetidin-1-yl)carbonyl]-2-[2-(4-fluorophenyl)ethyl]-5,6,7,8-tetrahydro[1,2,4]triazolo[4,3-a]pyridin-3(2H)-one] was run?
**A.** 8.19

**Q.** `O=C(C1C(C(F)(F)F)CCc2nn(Cc3ncc(Cl)cc3Cl)c(=O)n21)N1CCC(F)(F)C1` (single isomer, unassigned) [Example 290, (5RS,6RS)-2-[(3,5-Dichloropyridin-2-yl)methyl]-5-[(3,3-difluoropyrrolidin-1-yl)carbonyl]-6-(trifluoromethyl)-5,6,7,8-tetrahydro[1,2,4]triazolo[4,3-a]pyridin-3(2H)-one] was tested. Which pIC50 did it give?
**A.** 7.09

**Q.** With `COc1ccc(Cn2nc3n(c2=O)[C@H](C(=O)N2CC(F)(F)C2)CCC3)nc1` [Example 532, (5S)-5-[(3,3-Difluoroazetidin-1-yl)carbonyl]-2-[(5-methoxypyridin-2-yl)methyl]-5,6,7,8-tetrahydro[1,2,4]triazolo[4,3-a]pyridin-3(2H)-one] as the compound, how does the pIC50 read?
**A.** 7.47

**Q.** With `O=C([C@@H]1CCCc2nn(Cc3ccc(Br)cc3F)c(=O)n21)N1C[C@@H](F)[C@@H](F)C1` [Example 215, (5S)-2-(4-Bromo-2-fluorobenzyl)-5-{[(3R,4S)-3,4-difluoropyrrolidin-1-yl]carbonyl}-5,6,7,8-tetrahydro[1,2,4]triazolo[4,3-a]pyridin-3(2H)-one] as the compound, how does the pIC50 read?
**A.** 9.28

**Q.** With `O=C(C1CC(C(F)(F)F)Cc2nn(Cc3ccc(Cl)nc3)c(=O)n21)N1CC[C@H](F)C1` (single isomer, unassigned) [Example 244] as the compound, how does the pIC50 read?
**A.** 7.96

**Q.** How did the pIC50 turn out when `O=C([C@@H]1CCCc2nn(Cc3ccc(C(F)(F)F)nc3)c(=O)n21)N1CC(F)C(F)C1` (single isomer, unassigned) [Example 553] was run?
**A.** 6.24

**Q.** With `Cc1ccc(Cn2nc3n(c2=O)C(C(=O)N2CCC(F)(F)C2)CCC3)cc1` (racemic) [Example 42, (5RS)-5-[(3,3-Difluoropyrrolidin-1-yl)carbonyl]-2-(4-methylbenzyl)-5,6,7,8-tetrahydro[1,2,4]triazolo[4,3-a]pyridin-3(2H)-one] as the compound, how does the pIC50 read?
**A.** 8.84
